Experimental data taken from patent US10183952B2, “Thienopyrroles as histone demethylase inhibitors” (ISTITUTO EUROPEO DI ONCOLOGIA S.R.L., priority 2014, dated 2019).
Structures can show the parent of a compound that is named as a salt.

Assays:
[1] = system: human leukemia NB4 cells; assay: Cell growth, CellTiter-Fluor Cell Viability Assay, NB4; format: cell-based; conditions: NB-4, 48 h incubation, read-out: IC50 against human leukemia NB4 cells
From the text: (§1) The CellTiter-Fluor™ Cell Viability Assay measures the conserved and constitutive protease activity within live cells and therefore acts as a marker for cell viability.
(§2) CellTiter-Flor® (Promega) is as a nonlytic, single-reagent-addition fluorescence assay that measures the relative number of living cells in a culture population after experimental manipulation. The CellTiter-Fluor™ Cell Viability Assay measures the conserved and constitutive protease activity within live cells and therefore acts as a marker for cell viability.
(§3) Human leukemia MV4-11 cells, (obtained from the Deutsche Sammlung von Mikroorganismen und Zellkulturen, ACC 102) or NB4 cells, (obtained from the Deutsche Sammlung von Mikroorganismen und Zellkulturen) in exponential growth, were incubated for 48 h with different concentrations of the inhibitors. After 48 h a volume of CellTiter-Fluor® Reagent equal to one fifth of volume of cell culture medium was added. The content was mixed and incubates for at least 90 min at 37° C. degree to obtain a stable signal. The fluorescence was recorded using an excitation wavelength of 360 nm and an emission at 535 nm. The IC50 was calculated using GraphPad Software.

[2] = system: human leukemia MV4-11 cells; assay: Cell growth, CellTiter-Fluor Cell Viability Assay, MV4-11; format: cell-based; conditions: 48 h incubation, read-out: IC50 against human leukemia MV4-11 cells
From the text: as §1, §2, §3

[3] = target: human recombinant KDM1A/CoREST protein (Homo sapiens, UniProt O60341); assay: Assay of enzyme inhibition of KDM1A (LSD1), TR-FRET
Protocol: The intensity of the light emission is proportional to the level of biotinylated reaction product. The complex of human recombinant KDM1A/CoREST protein was produced in E. coli as separate proteins and co-purified as previously described.
Demethylase reaction was started by the addition of 50 nM histone H3K4 monomethylated.
The resulting mixture was incubated in the dark for 1 h at RT.

IC50 [1] [µM]	IC50 [2] [µM]	IC50 [3] [µM]	SMILES
< 20	< 10	< 10	Cn1c(C(=O)Nc2ccccc2COc2ccc(OC3CCNCC3)cc2)cc2sccc21 [Example 1, 4-Methyl-N-[2-[[4-(4-piperidyloxy)phenoxy]methyl]phenyl]thieno[3,2-b]pyrrole-5-carboxamide]
< 20	< 10	< 10	Cn1c(C(=O)Nc2ccccc2COc2ccc(OCC3CCNCC3)cc2)cc2sccc21 [Example 2, 4-methyl-N-[2-[[4-(4-piperidylmethoxy)phenoxy]methyl]phenyl]thieno-[3,2-b]pyrrole-5-carboxamide]
< 20	< 10	< 10	CCN1CCC(Oc2ccc(OCc3ccccc3NC(=O)c3cc4sccc4n3C)cc2)CC1 [Example 3, N-[2-[[4-[(1-ethyl-4-piperidyl)oxy]phenoxy]methyl]phenyl]-4-methyl-thieno[3,2-b]pyrrole-5-carboxamide]
< 20	< 10	< 10	Cn1c(C(=O)Nc2ccccc2COc2ccc(OC[C@@H]3CCNC3)cc2)cc2sccc21 [Example 4, 4-methyl-N-[2-[[4-[[(3R)-pyrrolidin-3-yl]methoxy]phenoxy]methyl]phenyl]thieno[3,2-b]pyrrole-5-carboxamide]
< 20	< 10	< 10	Cn1c(C(=O)Nc2ccccc2COc2ccc(OCC3CCNC3)cc2)cc2sccc21 (stereo not drawn) [Example 5, 4-methyl-N-[2-[[4-(pyrrolidin-3-ylmethoxy)phenoxy]methyl]phenyl]thieno[3,2-b]pyrrole-5-carboxamide]
< 20	< 10	< 10	CCn1c(C(=O)Nc2cccc(COc3ccc(OC4CCNCC4)cc3)c2)cc2sccc21 [Example 6, 4-ethyl-N-[3-[[4-(4-piperidyloxy)phenoxy]methyl]phenyl]thieno[3,2-b]pyrrole-5-carboxamide]
< 20	< 10	< 10	Cn1c(C(=O)Nc2ccccc2COc2ccc(OC3CCCNCC3)cc2)cc2sccc21 (stereo not drawn) [Example 7, N-[2-[[4-(azepan-4-yloxy)phenoxy]methyl]phenyl]-4-methyl-thieno[3,2-b]pyrrole-5-carboxamide hydrochloride]
< 20	< 10	< 10	CCn1c(C(=O)Nc2ccccc2COc2ccc(OC3CCNCC3)cc2)cc2sccc21 [Example 8, 4-ethyl-N-[2-[[4-(4-piperidyloxy)phenoxy]methyl]phenyl]thieno[3,2-b]pyrrole-5-carboxamide]
< 20	< 10	< 10	Cn1c(C(=O)Nc2ccccc2COc2ccc(O[C@H]3CC[C@@H](N)CC3)cc2)cc2sccc21 [Example 9, N-[2-[[4-(cis-4-aminocyclohexoxy)phenoxy]methyl]phenyl]-4-methyl-thieno[3,2-b]pyrrole-5-carboxamide]
< 20	< 10	< 10	Cn1c(C(=O)Nc2cccc(COc3ccc(OC4CCNCC4)cc3)c2)cc2sccc21 [Example 10, 4-methyl-N-[3-[[4-(4-piperidyloxy)phenoxy]methyl]phenyl]thieno[3,2-b]pyrrole-5-carboxamide]
< 20	< 10	< 10	Cn1c(C(=O)Nc2ccccc2COc2ccc(OC[C@H]3CCNC3)cc2)cc2sccc21 [Example 11, 4-methyl-N-[2-[[4-[[(3S)-pyrrolidin-3-yl]methoxy]phenoxy]methyl]phenyl]thieno[3,2-b]pyrrole-5-carboxamide]
< 20	< 10	< 10	CCn1c(C(=O)Nc2ccccc2COc2ccc(OC3CCN(C)CC3)cc2)cc2sccc21 [Example 12, 4-ethyl-N-[2-[[4-[(1-methyl-4-piperidyl)oxy]phenoxy]methyl]phenyl]thieno[3,2-b]pyrrole-5-carboxamide]
< 20	< 10	< 10	CN1CCC(Oc2ccc(OCc3ccccc3NC(=O)c3cc4sccc4n3C)cc2)CC1 [Example 13, 4-methyl-N-[2-[[4-[(1-methyl-4-piperidyl)oxy]phenoxy]methyl]phenyl]thieno[3,2-b]pyrrole-5-carboxamide]
< 20	< 10	< 10	Cn1c(C(=O)Nc2ccccc2COc2ccc(O[C@H]3CC[C@H](N)CC3)cc2)cc2sccc21 [Example 14, N-[2-[[4-(trans-4-aminocyclohexoxy)phenoxy]methyl]phenyl]-4-methyl-thieno[3,2-b]pyrrole-5-carboxamide]
< 20	< 10	< 10	CN1CCC(Oc2ccc(OCc3cccc(NC(=O)c4cc5sccc5n4C)c3)cc2)CC1 [Example 15, 4-methyl-N-[3-[[4-[(1-methyl-4-piperidyl)oxy]phenoxy]methyl]phenyl]thieno[3,2-b]pyrrole-5-carboxamide]
< 20	< 10	< 10	Cn1c(C(=O)Nc2ccccc2COc2ccc(OC3CCNC3)cc2)cc2sccc21 (stereo not drawn) [Example 16, 4-methyl-N-[2-[(4-pyrrolidin-3-yloxyphenoxy)methyl]phenyl]thieno[3,2-b]pyrrole-5-carboxamide]
< 20	< 10	< 10	CN1CCC(Oc2cccc(OCc3ccccc3NC(=O)c3cc4sccc4n3C)c2)CC1 [Example 17, 4-methyl-N-[2-[[3-[(1-methyl-4-piperidyl)oxy]phenoxy]methyl]phenyl]thieno[3,2-b]pyrrole-5-carboxamide]
< 20	< 10	< 10	Cn1c(C(=O)Nc2ccccc2COc2cccc(OC3CCNCC3)c2)cc2sccc21 [Example 18, 4-methyl-N-[2-[[3-(4-piperidyloxy)phenoxy]methyl]phenyl]thieno[3,2-b]pyrrole-5-carboxamide]
< 20	< 10	< 10	CN1CCCC(COc2cccc(NC(=O)c3cc4sccc4n3C)c2)C1 (stereo not drawn) [Example 19, 4-methyl-N-[3-[(1-methyl-3-piperidyl)methoxy]phenyl]thieno[3,2-b]pyrrole-5-carboxamide]
< 20	< 10	< 10	CN1CCN(Cc2ccc(OCc3ccccc3NC(=O)c3cc4sccc4n3C)cc2)CC1 [Example 20, 4-methyl-N-[2-[[4-[(4-methylpiperazin-1-yl)methyl]phenoxy]methyl]phenyl]thieno[3,2-b]pyrrole-5-carboxamide]
< 20	< 10	< 10	Cn1c(C(=O)Nc2cccc(OCc3ccncc3)c2)cc2sccc21 [Example 21, 4-methyl-N-[3-(4-pyridylmethoxy)phenyl]thieno[3,2-b]pyrrole-5-carboxamide]
< 20	< 10	< 10	COCc1cccc(NC(=O)c2cc3sccc3n2C)c1COc1ccc(OC[C@H]2CCNC2)cc1 [Example 49, N-[3-(Methoxymethyl)-2-[[4-[[(3S)-pyrrolidin-3-yl]methoxy]phenoxy]methyl]phenyl]-4-methyl-thieno[3,2-b]pyrrole-5-carboxamide hydrochloride]
< 20	< 10	< 10	CCOCc1cccc(NC(=O)c2cc3sccc3n2C)c1COc1ccc(OC2CCNCC2)cc1 [Example 50, N-[3-(Ethoxymethyl)-2-[[4-(4-piperidyloxy)phenoxy]methyl]phenyl]-4-methyl-thieno[3,2-b]pyrrole-5-carboxamide hydrochloride]
< 20	< 10	< 10	CC(C)OCc1cccc(NC(=O)c2cc3sccc3n2C)c1COc1ccc(OC2CCNCC2)cc1 [Example 51, N-[3-(Isopropoxymethyl)-2-[[4-(4-piperidyloxy)phenoxy]methyl]phenyl]-4-methyl-thieno[3,2-b]pyrrole-5-carboxamide]
< 20	< 10	< 10	CCn1c(C(=O)Nc2cccc(COC)c2COc2ccc(OC[C@@H]3CCNC3)cc2)cc2sccc21 [Example 53, 4-Ethyl-N-[3-(methoxymethyl)-2-[[4-[[(3R)-pyrrolidin-3-yl]methoxy]phenoxy]methyl]phenyl]thieno[3,2-b]pyrrole-5-carboxamide; trifluoroacetic acid]
< 20	< 10	< 10	Cn1c(C(=O)Nc2cccc(CN3CCOCC3)c2COc2ccc(OC3CCNCC3)cc2)cc2sccc21 [Example 54, 4-Methyl-N-[3-(morpholinomethyl)-2-[[4-(4-piperidyloxy)phenoxy]methyl]phenyl]thieno[3,2-b]pyrrole-5-carboxamide dihydrochloride]
< 20	< 10	< 10	Cc1ccc(COc2ccc(OCC3CCNC3)cc2)c(NC(=O)c2cc3sccc3n2C)c1 (stereo not drawn) [Example 55, 4-Methyl-N-[5-methyl-2-[[4-(pyrrolidin-3-ylmethoxy)phenoxy]methyl]phenyl]thieno[3,2-b]pyrrole-5-carboxamide]

SMILES	IC50 [1] [µM]	IC50 [2] [µM]	IC50 [3] [µM]
CCOCc1cccc(NC(=O)c2cc3sccc3n2C)c1COc1ccc(OC[C@@H]2CCNC2)cc1 [Example 52, N-[3-(Ethoxymethyl)-2-[[4-[[(3R)-pyrrolidin-3-yl]methoxy]phenoxy]methyl]phenyl]-4-methyl-thieno[3,2-b]pyrrole-5-carboxamide hydrochloride]	< 20	< 10	< 10
